From patent US20160355475A1, “NOVEL INDOLE DERIVATIVE COMPOUND AND PHARMACEUTICAL COMPOSITION COMPRISING THE SAME” (CHONG KUN DANG PHARMACEUTICAL CORP., priority 2014, published 2016)

Legend:
HDAC1 = target: T1, HDAC1 (Homo sapiens, UniProt Q13547); assay: HDAC1 enzyme activity inhibition (HDAC1 fluorimetric drug discovery assay kit); type: biochemical; details: 37° C., 60 minutes; tested at 100, 1000 and 10000 nM
T1 construct: purchased Enzolifesciences BML-AK511
Protocol: (§1) 1. Experiment on Activities in HDAC Enzymes (HDAC1 and HDAC6)
(§2) Assays were performed using a HDAC1 fluorimetric drug discovery assay kit (Enzolifesciences: BML-AK511) and a HDAC6 human recombinant (Calbiochem: 382180). The assay mixture of the kit was treated with each of the compounds of the Examples at concentrations 100, 1000 and 10000 nM for HDAC1 assay and 0.1, 1, 10, 100 and 1000 nM for HDAC6 assay. The treated assay mixture was allowed to react at 37° C. for 60 minutes, and then was treated with a developer and allowed to stand at 37° C. for 30 minutes, followed by quantification of the fluorescence. In Table 17, lower HDAC6 values (μM) indicate higher HDAC6 inhibitory activities of the compounds. Also, because selective HDAC6 inhibitors should not inhibit HDAC1 (μM), higher HDAC1 values indicate higher HDAC6 selectivity of the compounds.

HDAC6 human recombinant = target: T2, HDAC6 human recombinant (Homo sapiens, UniProt Q9UBN7); assay: HDAC6 enzyme activity inhibition (fluorimetric, in vitro); type: biochemical; details: 37° C., 60 minutes; tested at 0.1, 1, 10, 100 and 1000 nM
T2 construct: purchased Calbiochem 382180
T2 sequence (Q9UBN7 1-1215): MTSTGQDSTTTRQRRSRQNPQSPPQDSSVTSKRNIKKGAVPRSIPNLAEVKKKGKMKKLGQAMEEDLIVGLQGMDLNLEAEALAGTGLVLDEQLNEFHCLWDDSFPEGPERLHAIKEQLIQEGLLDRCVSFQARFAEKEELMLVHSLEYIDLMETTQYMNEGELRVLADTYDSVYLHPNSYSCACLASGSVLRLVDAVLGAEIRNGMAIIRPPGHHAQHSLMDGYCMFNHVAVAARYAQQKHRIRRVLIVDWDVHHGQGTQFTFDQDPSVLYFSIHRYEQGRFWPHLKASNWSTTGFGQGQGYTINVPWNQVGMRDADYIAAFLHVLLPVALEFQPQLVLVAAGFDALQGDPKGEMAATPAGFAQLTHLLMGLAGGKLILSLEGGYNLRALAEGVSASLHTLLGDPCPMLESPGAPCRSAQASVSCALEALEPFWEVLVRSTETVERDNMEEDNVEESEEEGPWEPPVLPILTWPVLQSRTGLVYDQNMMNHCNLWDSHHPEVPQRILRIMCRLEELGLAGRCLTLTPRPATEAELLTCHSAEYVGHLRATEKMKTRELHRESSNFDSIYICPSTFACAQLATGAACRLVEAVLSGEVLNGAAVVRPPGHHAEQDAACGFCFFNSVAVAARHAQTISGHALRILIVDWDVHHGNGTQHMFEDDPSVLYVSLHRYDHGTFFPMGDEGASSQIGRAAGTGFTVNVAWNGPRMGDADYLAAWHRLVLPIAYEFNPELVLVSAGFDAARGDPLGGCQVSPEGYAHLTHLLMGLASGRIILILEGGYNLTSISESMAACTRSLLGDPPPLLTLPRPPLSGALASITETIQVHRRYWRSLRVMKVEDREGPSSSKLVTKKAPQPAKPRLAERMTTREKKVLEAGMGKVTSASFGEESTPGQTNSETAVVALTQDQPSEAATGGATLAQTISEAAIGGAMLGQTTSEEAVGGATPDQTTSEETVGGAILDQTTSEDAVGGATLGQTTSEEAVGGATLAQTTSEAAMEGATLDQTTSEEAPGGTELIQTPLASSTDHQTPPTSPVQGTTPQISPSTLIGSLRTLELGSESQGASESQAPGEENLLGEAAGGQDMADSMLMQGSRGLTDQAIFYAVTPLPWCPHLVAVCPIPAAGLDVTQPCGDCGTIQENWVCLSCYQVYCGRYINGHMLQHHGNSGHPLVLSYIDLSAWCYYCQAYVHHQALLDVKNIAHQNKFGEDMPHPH
Protocol: as §1, §2

T1 sequence (Q13547 whole entry): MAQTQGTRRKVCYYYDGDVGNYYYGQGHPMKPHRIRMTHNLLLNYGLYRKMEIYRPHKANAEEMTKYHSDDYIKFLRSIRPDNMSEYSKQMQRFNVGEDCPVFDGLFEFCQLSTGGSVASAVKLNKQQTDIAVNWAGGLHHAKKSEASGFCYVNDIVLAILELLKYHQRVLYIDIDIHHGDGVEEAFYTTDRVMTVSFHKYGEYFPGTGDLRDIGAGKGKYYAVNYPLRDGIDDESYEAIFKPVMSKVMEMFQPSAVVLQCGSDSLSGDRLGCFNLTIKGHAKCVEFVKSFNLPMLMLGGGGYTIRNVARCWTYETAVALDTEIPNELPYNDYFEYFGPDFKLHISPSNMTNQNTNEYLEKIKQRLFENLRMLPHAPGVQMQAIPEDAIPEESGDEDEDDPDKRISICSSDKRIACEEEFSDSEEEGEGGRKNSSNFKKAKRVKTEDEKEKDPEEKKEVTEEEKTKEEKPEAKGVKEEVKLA

| SMILES | IC50 (HDAC1) [nM] | IC50 (HDAC6 human recombinant) [nM] |
| --- | --- | --- |
| Cc1c(Cc2ccc(C(=O)NO)cn2)c2ccccc2n1CCN1CCN(C)CC1 [Compound 243, N-hydroxy-6-((2-methyl-1-(2-(4-methylpeperazin-1-yl)ethyl)-1H-indol-3-yl)methyl)nicotinamide] | – | 340 |
| Cc1c(Cc2ccc(C(=O)NO)cc2)c2ccccc2n1CC1CCN(CC(C)(C)F)C1 (stereo not drawn) [Compound 713, 4-((1-((1-(2-Fluoro-2-methylpropyl)pyrrolidin-3-yl)methyl)-2-methyl-1H-indol-3-yl)methyl)-N-hydroxybenzamide] | > 10000 | 246 |
| CC(C)(F)CN1CCC(Cn2c(C3=CCOCC3)c(Cc3ccc(C(=O)NO)cc3)c3ccccc32)CC1 [Compound 627, 4-((2-(3,6-Dihydro-2H-pyran-4-yl)-1-((1-(2-fluoro-2-methylpropyl)piperidin-4-yl)methyl)-1H-indol-3-yl)methyl)-N-hydroxybenzamide] | – | 352 |
| Cc1c(Cc2ccc(C(=O)NO)cc2)c2ccccc2n1CC1CCN(Cc2ccccc2)CC1 [Compound 556, 4-((1-((1-Benzylpiperidin-4-yl)methyl)-2-methyl-1H-indol-3-yl)methyl)-N-hydroxybenzamide] | – | 108 |
| Cc1c(Cc2ccc(C(=O)NO)cc2)c2ccccc2n1CC1CN(CC(C)(C)F)C1 [Compound 750, 4-((1-((1-(2-Fluoro-2-methylpropyl)azetidin-3-yl)methyl)-2-methyl-1H-indol-3-yl)methyl)-N-hydroxybenzamide] | – | 114 |
| Cc1c(Cc2ccc(C(=O)NO)cc2)c2ccccc2n1CC1CCN(CCc2ccccc2)CC1 [Compound 559, N-hydroxy-4-((2-methyl-1-((1-phenethylpiperidin-4-yl)methyl)-1H-indol-3-yl)methyl)benzamide] | – | 273 |
| CC(C)(F)CN1CCC(Cn2cc(Cc3ccc(C(=O)NO)cc3)c3ccc(F)cc32)CC1 [Compound 708, 4-((6-Fluoro-1-((1-(2-fluoro-2-methylpropyl)piperidin-4-yl)methyl)-1H-indol-3-yl)methyl)-N-hydroxybenzamide] | – | 432 |
| Cc1c(Cc2ccc(C(=O)NO)cn2)c2ccccc2n1CCN1CCOCC1 [Compound 244, N-hydroxy-6-((2-methyl-1-(2-morpholinoethyl)-1H-indol-3-yl)methyl)nocotinamide] | – | 236 |
| CC(C)(F)CN1CCC(Cn2c(-c3ccccc3)c(Cc3ccc(C(=O)NO)cc3)c3ccccc32)CC1 [Compound 616, 4-((1-((1-(2-Fluoro-2-methylpropyl)piperidin-4-yl)methyl)-2-phenyl-1H-indol-3-yl)methyl)-N-hydroxybenzamide] | – | 821 |
| Cc1c(Cc2ccc(C(=O)NO)cc2F)c2ccccc2n1CC1CCN(CC(C)(C)F)CC1 [Compound 562, 3-Fluoro-4-((1-((1-(2-fluoro-2-methylpropyl)piperidin-4-yl)methyl)-2-methyl-1H-indol-3-yl)methyl)-N-hydroxybenzamide] | – | 87 |
| Cc1c(Cc2ccc(C(=O)NO)cc2)c2ccccc2n1CC1CCN(Cc2ccc(F)cc2)CC1 [Compound 622, 4-((1-((1-(4-Fluorobenzyl)piperidin-4-yl)methyl)-2-methyl-1H-indol-3-yl)methyl)-N-hydroxybenzamide] | – | 90 |
| CC(C)(F)CN1CCC(Cn2cc(Cc3ccc(C(=O)NO)cc3)c3c(F)cccc32)CC1 [Compound 707, 4-((4-Fluoro-1-((1-(2-fluoro-2-methylpropyl)piperidin-4-yl)methyl)-1H-indol-3-yl)methyl)-N-hydroxybenzamide] | – | 171 |
| Cc1c(Cc2ccc(C(=O)NO)cc2)c2ccccc2n1CCC1CCN(CC(C)(C)F)CC1 [Compound 563, 4-((1-(2-(1-(2-Fluoro-2-methylpropyl)piperidin-4-yl)ethyl)-2-methyl-1H-indol-3-yl)methyl)-N-hydroxybenzamide] | – | 307 |
| CC(C)(F)CN1CCC(Cn2cc(Cc3ccc(C(=O)NO)cc3)c3ccccc32)CC1 [Compound 614, 4-((1-((1-(2-Fluoro-2-methylpropyl)piperidin-4-yl)methyl)-1H-indol-3-yl)methyl)-N-hydroxybenzamide] | – | 150 |
| Cc1c(Cc2ccc(C(=O)NO)cc2)c2ccccc2n1CC1CCN(Cc2ccncc2)CC1 [Compound 621, N-hydroxy-4-((2-methyl-1-((1-(pyridin-4-ylmethyl)piperidin-4-yl)methyl)-1H-indol-3-yl)methyl)benzamide] | – | 89 |

Molecules with a lower IC50 (HDAC6 human recombinant), results first:

| IC50 (HDAC1) [nM] | IC50 (HDAC6 human recombinant) [nM] | SMILES |
| --- | --- | --- |
| 6610 | 31 | Cc1c(Cc2ccc(C(=O)NO)cc2)c2ccccc2n1CCN1CCC(CF)C1 (stereo not drawn) [Compound 591, 4-((1-(2-(3-(Fluoromethyl)pyrrolidin-1-yl)ethyl)-2-methyl-1H-indol-3-yl)methyl)-N-hydroxybenzamide] |
| 2460 | 27 | Cc1c(Cc2ccc(C(=O)NO)cc2)c2cc(F)ccc2n1CC1CCN(CC(C)(C)O)CC1 [Compound 582, 4-((5-Fluoro-1-((1-(2-hydroxy-2-methylpropyl)piperidin-4-yl)methyl)-2-methyl-1H-indol-3-yl)methyl)-N-hydroxybenzamide] |
| > 10000 | 79 | Cc1c(Cc2ccc(C(=O)NO)cc2)c2ccccc2n1CC1CCN(CC2(F)CCN(C(=O)OC(C)(C)C)CC2)CC1 [Compound 610, Tert-butyl 4-fluoro-4-((4-((3-(4-(hydroxycarbamoyl)benzyl)-2-methyl-1H-indol-1-yl)methyl)piperidin-1-yl)methyl)piperidine-1-carboxylate] |
| 1810 | 8 | Cc1c(Cc2ccc(C(=O)NO)cc2)c2ccccc2n1CCN1CCN(CCO)CC1 [Compound 197, N-hydroxy-4-((1-(2-(4-(2-hydroxyethyl)piperazin-1-yl)ethyl)-2-methyl-1H-indol-3-yl)methyl)benzamide] |
| 2810 | 30 | Cc1c(Cc2ccc(C(=O)NO)cc2)c2cc(F)ccc2n1CCN1CC[C@H](O)C1 [Compound 587, (S)-4-((5-fluoro-1-(2-(3-hydroxypyrrolidin-1-yl)ethyl)-2-methyl-1H-indol-3-yl)methyl)-N-hydroxybenzamide] |
| – | 82 | Cc1c(Cc2ccc(C(=O)NO)cc2)c2ccccc2n1CCN1CCC[C@H]1CF [Compound 551, (S)-4-((1-(2-(2-(fluoromethyl)pyrrolidin-1-yl)ethyl)-2-methyl-1H-indol-3-yl)methyl)-N-hydroxybenzamide] |
| – | 24 | Cc1c(Cc2ccc(C(=O)NO)cc2)c2ccccc2n1CC1CCN(CC2(F)CCN(C(=O)NC(C)C)CC2)CC1 [Compound 695, 4-Fluoro-4-((4-((3-(4-(hydroxycarbamoyl)benzyl)-2-methyl-1H-indol-1-yl)methyl)piperidin-1-yl)methyl)-N-isopropylpiperidine-1-carboxamide] |
| – | 7 | Cc1c(Cc2ccc(C(=O)NO)cc2)c2ccccc2n1CC1CCN(CC2(F)CCOCC2)CC1 [Compound 584, 4-((1-((1-((4-Fluoro-tetrahydro-2H-pyran-4-yl)methyl)piperidin-4-yl)methyl)-2-methyl-1H-indol-3-yl)methyl)-N-hydroxybenzamide] |
| – | 68 | Cc1c(Cc2ccc(C(=O)NO)cc2)c2ccccc2n1CCN1CCCC(F)C1 (stereo not drawn) [Compound 550, 4-((1-(2-(3-fluoropiperidin-1-yl)ethyl)-2-methyl-1H-indol-3-yl)methyl)-N-hydroxybenzamide] |
